According to patent US20170014360A1, “METHODS OF TREATING CANCER USING RAD51 SMALL MOLECULE STIMULATORS” (The University of Chicago, priority 2014, published 2017):

Assays:
[1] = molecular target: T1, purified human RAD51 protein (Homo sapiens, UniProt Q06609); assay: Measurement of RAD51 binding to DNA by fluorescence polarization; conditions: 75 nM RAD51, various concentrations of RS-1, 100 nM DNA substrate
T1 sequence (Q06609 1-339): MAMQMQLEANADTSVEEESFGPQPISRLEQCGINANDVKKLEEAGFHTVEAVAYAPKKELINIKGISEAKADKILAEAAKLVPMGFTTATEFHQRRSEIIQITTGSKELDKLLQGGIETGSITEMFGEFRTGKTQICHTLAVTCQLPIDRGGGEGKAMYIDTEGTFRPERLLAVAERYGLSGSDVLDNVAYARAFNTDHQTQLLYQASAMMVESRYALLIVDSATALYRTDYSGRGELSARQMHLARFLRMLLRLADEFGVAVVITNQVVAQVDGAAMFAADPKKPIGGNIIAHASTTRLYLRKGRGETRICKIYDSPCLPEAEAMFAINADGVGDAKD
Description: Various concentrations of RS-1 were incubated with purified hRAD51 protein and a fluorescently tagged DNA substrate, consisting of either a ssDNA oligonucleotide (DHD162-CD-CF) or a dsDNA double hairpin (DHD162). Binding of RAD51 to DNA was measured as a function of fluorescence polarization of the tag, as described in the methods section.
Experiments were performed as previously described with some modifications (Budke, et al., 2012). Briefly, 75 nM purified human RAD51 protein was incubated with various concentrations of RS-1 in FP reaction buffer at 37° C. for 40 minutes. FP reaction buffer consisted of 20 mM Hepes pH 7.5, 10 mM MgCl2, 0.25 μM BSA, 2% glycerol, 30 mM NaCl, 4% DMSO, 0.1 mM tris(2-carboxyethyl)phosphine (TCEP), and 2 mM ATP. Fluorescently tagged DNA substrate was then added to a final concentration of 100 nM (nucleotide concentration for ssDNA or base pair concentration for dsDNA) and incubated at 37° C. for another 40 minutes. DNA substrates consisted of either an Alexa Fluor 488-labeled oligo-dT 45-mer, a fluorescein-labeled ssDNA oligonucleotide (DHD162-CD-CF), or a fluorescein-labeled dsDNA double hairpin (DHD162) which were previously described (Budke, et al., 2013). Fluorescence polarization measurements were obtained as previously described (Budke, et al., 2012). […]

HT1080 cells = assay: Cell survival assay in HT1080 cells with doxycycline-repressible RAD51 transgene; assay type: cell-based, human; conditions: HT1080, RAD51 overexpression by doxycycline removal; 24 hours RS-1, 6 days drug-free
Description: HT1080 cells carrying a doxycycline-repressible RAD51 transgene were pre-treated with varying levels of doxycycline for 24 hours. […] In lower panel, cells were subsequently incubated for 24 hours in media containing varying concentrations of RS-1. Cells were then allowed to grow in drug-free media for an additional 6 days, and indicated doxycycline concentrations were maintained throughout the entire experiment. Average survival for each condition is normalized to the 0 μM RS-1 control of that condition.
(§4) Cells were plated into 96-well tissue culture plates at a density of 300 cells per well in the presence or absence of RS-1 for 24 hours at 37° C., 5% CO2. RS-1 was then removed, and cultures were allowed to grow for approximately one week to a 50-70% confluence. Average survival from six replicates was measured using CellGlo reagent (Promega), and error bars represent the standard error.
To confirm that RS-1 toxicity is directly related to RAD51 and translocases protein levels, these proteins were experimentally manipulated in cells. First, RAD51 was overexpressed in human fibrosarcoma HT1080 cells carrying a doxycycline-repressible RAD51 transgene.

[2] = tested on: PC3 prostate cancer cells; assay: Immunofluorescence microscopy to detect RAD51 and RPA foci in PC3 cells; assay type: cell-based, human
Description: (§1) FIGS. 6A-6B. […] FIG. 6A: Cells were grown on cover slips, incubated for 6 hours in media containing 60 μM RS-1. In the 8 Gy radiation control condition, cells were irradiated 6 hours before harvest. Cells were subsequently indirectly immunostained. […] FIG. 6B: Fifty randomly selected nuclei per treatment group were examined and discrete foci were quantified.
(§2) Some cancer cells that strongly overexpress RAD51 are known to develop spontaneous RAD51 nuclear complexes (Raderschall, et al., 2002). […] PC3 prostate cancer cells and normal primary human fibroblasts (MRC-5) were treated with RS-1 and examined by immunofluorescence microscopy. To determine whether RAD51-staining structures represented sites of DNA repair vs. non-damage-associated sites, nuclei were counterstained for RPA, which forms punctuate sub-nuclear foci specifically in response to DNA damage at sites that colocalize with damage-induced RAD51 foci (Golub, et al., 1998).
(§3) Cells were grown on coverslips and treated with RS-1 or radiation as indicated. They were subsequently fixed with 3% paraformaldahyde/3.4% sucrose, and permeabilized with a standard buffer (20 mM HEPES pH 7.4, 0.5% TritonX-100, 50 mM NaCl, 3 mM MgCl2, 300 mM sucrose). […] Images were recorded at a single representative focal plane using a CCD camera. For each experimental condition, 50 randomly selected nuclei were quantified using NIH Image software.

RAD51 [3] = molecular target: T2, RAD51 (Homo sapiens, UniProt Q06609); conditions: cited from earlier work
T2 sequence (Q06609 1-339): T1 sequence (Q06609 1-339)

PC3 tumors = assay: PC3 xenograft tumor model in athymic nude mice
Description: FIG. 7. […] PC3 tumors were induced in the hind limbs of athymic nude mice. Mice were then randomized into two treatment groups. Starting on day 0, mice then received 5 daily intra-peritoneal injections with either RS-1 (110 mg/kg) or vehicle alone control. Median tumor volume is plotted, normalized to the starting tumor volume on day 0.
An in-vivo tumor model was used to further test the concept of RAD51 stimulation as a cancer treatment. Subcutaneous xenograft PC3 tumors were induced in the hind limbs of athymic nude mice, and the mice were subsequently treated with daily intra-peritoneal injections of RS-1 for five consecutive days. The daily dose administered to the mice was designed to yield an idealized concentration of 300 μM within the aqueous compartment of a mouse, based on an assumption of homogenous distribution across a 21 gm animal that is composed of 70% water.
Xenograft tumors were induced in the hind limbs of athymic nude mice by subcutaneous injection of 1×10^6 PC3 cells, and tumors were allowed to grow to an average volume of about 50 mm^3. Mice were then were randomized into treatment groups, each consisting of 7 mice. […] Tumor measurements were taken 3 times per week with a caliper and expressed as tumor volume, which was approximated from the product of width×length×height×0.5.

[4] = tested on: normal primary human fibroblasts (MRC-5); assay: Immunofluorescence microscopy to detect RAD51 and RPA foci in MRC-5 cells; assay type: cell-based
Description: as §1, §2, §3

PC3 cells = assay: Cell survival assay in PC3 cells (with or without siRNA knockdown); assay type: cell-based, human
Description: PC3 cells were treated with various concentrations of RAD51 siRNA for 48 hours. […] Following RNAi, cells were allowed to grow for 7 days and assayed for viability in the absence of additional treatment. FIG. 3B: Following RNAi, cells were incubated for 24 hours in media containing varying concentrations of RS-1. Cells were then allowed to grow in drug-free media for an additional 6 days. Average survival for each condition is normalized to the 0 μM RS-1 control of that condition.
PC3 cells were treated with siRNA against RAD54L, RAD54B, both, or a non-silencing (NS) control for 48 hours. Following RNAi, cells were subsequently incubated for 24 hours in media containing varying concentrations of RS-1. Cells were then allowed to grow in RS-1-free media for an additional 6 days. Average survival for each condition is normalized to the 0 μM RS-1 control of that condition.
as §4
The RAD51 siRNA and the All-Stars negative control siRNA (NS) were ordered from Qiagen. RAD54B siRNAs were ordered from Invitrogen (Stealth). The RAD54L siRNA cocktail was ordered from Santa Cruz (sc-36362). All siRNAs were transfected using RNAiMax as per manufacturer's instructions (Invitrogen). Briefly, 2.0×10^5 cells were plated in 6 well dishes containing siRNA complexes to achieve the desired final concentration of siRNAs. The RAD54B and RAD54L siRNAs consisted of a cocktail of three independent siRNAs. The concentration of siRNAs transfected were 25 nM for RAD54L and 50 nM RAD54B. Co-depletion of RAD54L and RAD54B was performed by transfecting cells simultaneously with both siRNAs. At 48 hours post transfection, cells were harvested for cell survival assays and western blotting as described.

RAD51 [5] = molecular target: T2, RAD51; conditions: cited from earlier work; remark: listed apart in the source
[6] = 110 mg/kg intra-peritoneal, 5 daily injections

Q: Which “binding of RAD51 to ssDNA and dsDNA” value [1] does the source give for `O=C(Nc1ccc(Br)cc1)c1ccc(Br)c(S(=O)(=O)NCc2ccccc2)c1` [RS-1, 3-Benzylsulfamoyl-4-bromo-N-(4-bromo-phenyl)-benzamide] here?
A: Its value is “stimulates the binding of RAD51 to both ssDNA and dsDNA”.

Q: And the “sensitivity to RS-1 of cells with the highest RAD51 expression levels” value (HT1080 cells)?
A: Its value is “significantly more sensitive to RS-1”.

Q: And the “nuclei with >10 RAD51 foci/nucleus” value ([2]; PC3, 60 μM RS-1, 6 hours, no DNA damage)?
A: Its value is 43%.

Q: What about the “cells with >10 RPA foci/nucleus” value ([2]; PC3, after RS-1 treatment) of the same compound?
A: Its value is “Neither cell type exhibited >10 RPA foci/nucleus in any cells”.

Q: And the “DNA strand invasion activity of RAD51” value (RAD51 [3])?
A: The value was “capable of stimulating DNA strand invasion activity of RAD51”.

Q: And the “anti-tumor response relative to vehicle-alone control” value (PC3 tumors; [6])?
A: Its value is “significant anti-tumor responses”.

Q: What about the toxic deaths (PC3 tumors; [6]) of the same compound?
A: The toxic deaths was “no toxic deaths observed”.

Q: And the “delay in tumor regrowth relative to vehicle-alone control” value (PC3 tumors; 110 mg/kg intra-peritoneal, 5 daily injections, remaining tumors)?
A: Its value is over 2 week.

Q: What about the “tumors that completely disappeared after treatment and never regrew” value (PC3 tumors; 110 mg/kg intra-peritoneal, 5 daily injections, two month observation, 3 of 7) of the same compound?
A: Its value is 43%.

Q: What about the transient weight loss (PC3 tumors; during the treatment week, regained post-treatment) of the same compound?
A: Its transient weight loss is “about 10%”.

Q: What about the “nuclei with >10 RAD51 foci/nucleus” value ([4]; MRC-5, 60 μM RS-1, 6 hours) of the same compound?
A: The value was “no MRCS nuclei exhibited >10 RAD51 foci/nucleus”.

Q: What about the “cells with >10 RPA foci/nucleus” value ([4]; MRC-5, after RS-1 treatment) of the same compound?
A: The value was “Neither cell type exhibited >10 RPA foci/nucleus in any cells”.

Q: What about the “effect of RAD51 depletion on RS-1 induced toxicity” value (PC3 cells; PC3, RAD51 siRNA 48 hours, then 24 hours RS-1) of the same compound?
A: The value was “significant protection from RS-1 induced toxicity”.

Q: And the LD90 (PC3 cells; PC3, relative to panel of cell lines)?
A: The LD90 was “low LD90”.

Q: What about the “effect of RAD54B or RAD54L knockdown on RS-1 toxicity” value (PC3 cells; PC3, siRNA 48 hours, then 24 hours RS-1) of the same compound?
A: The value was “significantly sensitized PC3 cells to RS-1 toxicity”.

Q: What about the “protection of RAD51 filaments from high salt” value (RAD51 [5]; buffers containing high salt concentration) of the same compound?
A: The value was “protects these filaments from buffers containing high salt concentration”.

Q: And the “RAD51 filament formation (further study)” value (RAD51 [5])?
A: Its value is “enhances RAD51 filament formation”.
